Laboratory results as given in patent publication US4906666A, “Hydroxamic acids and pharmaceutical compositions containing them, and anti-allergic use thereof” (Boehringer Mannheim GmbH, priority 1986, dated 1990).

How the values were obtained:
[1] = system: passively sensitized strip of pulmonary parenchyma (guinea pig); experiment: Inhibition of the antigen-induced constriction on the passively sensitized strip of pulmonary parenchyma, Superfusion; type: cell-based; settings: Cavia porcellus, concentration 20 μM
From the text: (§1) The inhibiting action of the compounds according to the invention was expressed as a percentage reduction of the constriction amplitude of the "specimens with the test substance" in proportion to the "untreated control constrictions."

[2] = system: passively sensitized strip of pulmonary parenchyma (guinea pig); experiment: Inhibition of antigen-caused constriction of passively sensitized guinea pig pulmonary parenchyma strips in vitro (Organ Bath); type: cell-based, Pirbright-White guinea pigs; settings: concentration 5 μg/ml, 20 min preincubation at 37° C., ovalbumin constriction; for inhibition at 5 µg/mL: Cavia porcellus, read-out: Inhibition (%) of the antigen-induced constriction, Organ Bath
From the text: Activity of the inventive compounds was shown by the following testing in vitro. […] For this study of the inventive compounds, a measurement was made of the inhibition of the antigen-caused constriction of passively sensitized strips of guinea pig lung parenchyma, as described herewith:
Pirbright-White guinea pigs were stunned by a blow to the neck and bled. The lungs were flushed largely free of blood in situ with Krebs' buffer, pH 7.4.
Then the lung was removed, cut into strips (approx. 20×4×4 mm) and the strips were passively sensitized for one hour at room temperature with a 1:50 dilution of a homologous anti-ovalbumin antiserum and then washed once with Krebs' buffer.
The antiserum had previously been produced as described by Davies et al, (Quantitative studies on anaphylaxis in guinea pigs passively sensitized with homologous antibody. Inter. Arch. Allergy 41, 648-654 (1971)) in guinea pigs of the same strain by the repeated injection of ovalbumin (2×crystallized) with the addition of complete Freund's adjuvant.
Until it was used, the antiserum was stored undiluted at -18° C.
Then the lung strips were suspended singly in 10-milliliter water baths with a bias weight of 1.2 g on an isometric measuring receptable.
Then the baths were filled with Krebs' buffer and continually gassed at 37°° C. with O2 (95%) and CO2 (5%).
The constrictions of the lung strips were recorded through an amplifier on a plotter.
After a 30-minute habituating phase, histamine control spasms were produced in order to establish the reactivity of the lung specimens, washed, then the test substance was preincubated for 20 minutes at 37° C., and then the ovalbumin constriction was produced.
as §1

Row | SMILES | inhibition at 20 µM [1] [%] | other results
1 | CCCc1c(OCCCSCC(=O)N(C)O)ccc(C(C)=O)c1O [Example 1, N-Hydroxy-N-methyl-S-[3-(4-acetyl-3-hydroxy-2-propylphenoxy)-propyl]-thioacetamide] | 39 | –
2 | CCCCCc1cccc(OCCCSCCC(=O)N(C)O)c1 [Example 2b, N--hydroxy-N--methyl-S--[3-(3-pentylphenoxy)-propyl]-3-thiopropionic acid amide] | 58 | –
3 | CCCc1c(OCCCCSCCC(=O)N(C)O)ccc(C(C)=O)c1O [Example 2c, N--hydroxy-N--methyl-S--[4-(4-acetyl-3-hydroxy-2-propyl-phenoxy)-butyl]-3-thio-propionic acid amide] | 72 | –
4 | CCCc1c(OCCCCSCC(=O)N(C)O)ccc(C(C)=O)c1O [Example 2f, N--hydroxy-N--methyl-S--[4-(4-acetyl-3-hydroxy-2-propyl-phenoxy)-butyl]-thioacetamide] | 48 | –
5 | CCCc1c(OCC#CCSCCC(=O)N(C)O)ccc(C(C)=O)c1O [Example 2g, N--hydroxy-N--methyl-S--[4-(acetyl-3-hydroxy-2-propyl-phenoxy)-but-2-ynyl]-3-thiopropionic acid amide] | – | Inhibition (%) of the antigen-induced constriction, Organ Bath [2]: 67%
6 | CCCc1c(OCCCSCCC(=O)N(C)O)ccc(C(C)=O)c1O [Example 2i, N--hydroxy-N--methyl-S--[3-(4-acetyl-3-hydroxy-2-propyl-phenoxy)-propyl]-3-thio-propionic acid amide] | 63 | inhibition at 5 µg/mL [2]: 36%
7 | CCCCCC(O)c1cccc(OCCCSCCCC(=O)N(C)O)c1 (stereo not shown) [Example 2l, N--hydroxy-N--methyl-S--[3-(3-{1-hydroxyhexyl}-phenoxy)-propyl]-4-thiobutyric acid amide] | 44 | –
8 | CCCCCC(O)c1cccc(OCC(O)CSCCCC(=O)N(C)O)c1 (stereo not shown) [Example 2m, N--hydroxy-N--methyl-S--[3-(3-{1-hydroxyhexyl}-phenoxy)-2-hydroxypropyl]-4-thiobutyric acid amide] | 29 | –
9 | CCCCCC(O)c1cccc(OCCCCSCCC(=O)N(C)O)c1 (stereo not shown) [Example 2n, N--hydroxy-N--methyl-S--[4-(3-{1-hydroxyhexyl}-phenoxy)-butyl]-3-thiopropronic acid amide] | 33 | –
10 | CCCCCC(O)c1cccc(OCC=CCSCCC(=O)N(C)O)c1 (stereo not shown) [Example 2o, N--hydroxy-N--methyl-S--[4-(3-{1-hydroxyhexyl}-phenoxy)-but-2-enyl]-3-thiopropionic acid amide] | 42 | –
11 | CCCc1c(OCCCSCCC(=O)ONC2CCCCC2)ccc(C(C)=O)c1O [Example 2t, O--[S--(3-{4-acetyl-3-hydroxy-2-propylphenoxy}-propyl)-3-thiopropionyl]-cyclohexyl-hydroxylamine] | 15 | –
12 | CCCCCC(O)c1cccc(OCCCSCCCC(=O)Nc2nn[nH]n2)c1 (stereo not shown) [Example 4c, N--[(1H)-tetrazol-5-yl]-S--[3-(3-{1-hydroxyhexyl}-phenoxy)-propyl]-4-thiobutyric acid amide] | 29 | –
13 | CCCCCC(O)c1cccc(OCC(O)CSCCCC(=O)Nc2nn[nH]n2)c1 (stereo not shown) [Example 4d] | 83 | –
14 | CCCCCC(O)c1cccc(OCCCCSCCC(=O)Nc2nn[nH]n2)c1 (stereo not shown) [Example 4e, N--[(1H)-tetrazol-5-yl]-S--[4-(3-{1-hydroxyhexyl}-phenoxy)-butyl]-3-thiopropionic acid amide] | 73 | –
15 | CCCCCC(O)c1cccc(OCC=CCSCCC(=O)Nc2nn[nH]n2)c1 (stereo not shown) [Example 4f, N--[(1H)-tetrazol-5-yl]-S--[4-(3-{1-hydroxyhexyl}-phenoxy)-but-2-enyl]-3-thiopropionic acid amide] | 26 | –
16 | O=C(CCSCCCOc1ccc(Cl)c(Cl)c1)Nc1nn[nH]n1 [Example 4g, N--[(1H)-tetrazol-5-yl]-S--[3-(3,4-dichlorophenoxy)-propyl]-3-thiopropionic acid amide] | 75 | –
17 | CCCc1c(OCCCSCCCCCc2nn[nH]n2)ccc(C(C)=O)c1O [Example 6a, 5-{S--[3-(4-acetyl-3-hydroxy-2-propylphenoxy)-propyl]-5-thiopentyl}-(1H)-tetrazole] | 70 | –
18 | CCCc1c(OCCCSCCc2nn[nH]n2)ccc(C(C)=O)c1O [Example 6b, 5-{S--[3-(4-acetyl-3-hydroxy-2-propylphenoxy)-propyl]-2-thioethyl}-(1H)-tetrazole] | 55 | –
19 | CCCCCc1ccccc1OCCCSCCc1nn[nH]n1 [Example 6c, 5-{S--[3-(2-pentylphenoxy)-propyl]-2-thioethyl}-(1H)-tetrazole] | 13 | –
20 | C=CCc1c(OCCCSCCc2nn[nH]n2)ccc(C(C)=O)c1O [Example 6d, 5-{S--[3-(4-acetyl-3-hydroxy-2-allylphenoxy)-propyl]-2-thioethyl}-(1H)-tetrazole] | – | inhibition at 5 µg/mL [2]: 24%
21 | CCCc1c(OCCCSCCSc2nn[nH]n2)ccc(C(C)=O)c1O [Example 7, {S-[3-(4-Acetyl-3-hydroxy-2-propylphenoxy)-propyl]-2-thioethyl}-5-mercapto-(1H)-tetrazole] | 29 | –
22 | CCCCCC(O)c1cccc(OCCCSCCCC(=O)NO)c1 (stereo not shown) [Example 9a, N--hydroxy-S--[3-(3-{1-hydroxy-hexyl}-phenoxy)-propyl]-4-thiobutyric acid amide] | 11 | –
23 | CCCCCC(O)c1cccc(OCC(O)CSCCCC(=O)NO)c1 (stereo not shown) [Example 9b, N--hydroxy-S--[3-(3-{1-hydroxy-hexyl}-phenoxy)-2-hydroxy-propyl]-4-thiobutyric acid amide] | 21 | –
24 | CCCCCC(O)c1cccc(OCCCCSCCC(=O)NO)c1 (stereo not shown) [Example 9c, N--hydroxy-S--[4-(3-{1-hydroxy-hexyl}phenoxy)-butyl]-3-thiopropionic acid amide] | 27 | –
